Source: ChEMBL document CHEMBL4364347, “Recent advances in class IIa histone deacetylases research” (Bioorg Med Chem, 2019)

Tests used:
Histone deacetylase 4 [1] = target: T1, Histone deacetylase 4 (Homo sapiens, UniProt P56524); test: Inhibition of HDAC4 in human HeLa nuclear extract using Boc-Lys(Ac)-AMC as substrate preincubated for 5 mins followed by substrate addition measured after 30 mins by fluorometric assay; format: cell-free
Histone deacetylase 5 [2] = target: T2, Histone deacetylase 5 (Homo sapiens, UniProt Q9UQL6); test: Inhibition of HDAC5 in human HeLa nuclear extract using Boc-Lys(Ac)-AMC as substrate preincubated for 5 mins followed by substrate addition measured after 30 mins by fluorometric assay; format: cell-free
[3] = target: T3, Protein deacetylase HDAC6 (Homo sapiens, UniProt Q9UBN7); test: Inhibition of HDAC6 (unknown origin)
T3 sequence (Q9UBN7 whole entry): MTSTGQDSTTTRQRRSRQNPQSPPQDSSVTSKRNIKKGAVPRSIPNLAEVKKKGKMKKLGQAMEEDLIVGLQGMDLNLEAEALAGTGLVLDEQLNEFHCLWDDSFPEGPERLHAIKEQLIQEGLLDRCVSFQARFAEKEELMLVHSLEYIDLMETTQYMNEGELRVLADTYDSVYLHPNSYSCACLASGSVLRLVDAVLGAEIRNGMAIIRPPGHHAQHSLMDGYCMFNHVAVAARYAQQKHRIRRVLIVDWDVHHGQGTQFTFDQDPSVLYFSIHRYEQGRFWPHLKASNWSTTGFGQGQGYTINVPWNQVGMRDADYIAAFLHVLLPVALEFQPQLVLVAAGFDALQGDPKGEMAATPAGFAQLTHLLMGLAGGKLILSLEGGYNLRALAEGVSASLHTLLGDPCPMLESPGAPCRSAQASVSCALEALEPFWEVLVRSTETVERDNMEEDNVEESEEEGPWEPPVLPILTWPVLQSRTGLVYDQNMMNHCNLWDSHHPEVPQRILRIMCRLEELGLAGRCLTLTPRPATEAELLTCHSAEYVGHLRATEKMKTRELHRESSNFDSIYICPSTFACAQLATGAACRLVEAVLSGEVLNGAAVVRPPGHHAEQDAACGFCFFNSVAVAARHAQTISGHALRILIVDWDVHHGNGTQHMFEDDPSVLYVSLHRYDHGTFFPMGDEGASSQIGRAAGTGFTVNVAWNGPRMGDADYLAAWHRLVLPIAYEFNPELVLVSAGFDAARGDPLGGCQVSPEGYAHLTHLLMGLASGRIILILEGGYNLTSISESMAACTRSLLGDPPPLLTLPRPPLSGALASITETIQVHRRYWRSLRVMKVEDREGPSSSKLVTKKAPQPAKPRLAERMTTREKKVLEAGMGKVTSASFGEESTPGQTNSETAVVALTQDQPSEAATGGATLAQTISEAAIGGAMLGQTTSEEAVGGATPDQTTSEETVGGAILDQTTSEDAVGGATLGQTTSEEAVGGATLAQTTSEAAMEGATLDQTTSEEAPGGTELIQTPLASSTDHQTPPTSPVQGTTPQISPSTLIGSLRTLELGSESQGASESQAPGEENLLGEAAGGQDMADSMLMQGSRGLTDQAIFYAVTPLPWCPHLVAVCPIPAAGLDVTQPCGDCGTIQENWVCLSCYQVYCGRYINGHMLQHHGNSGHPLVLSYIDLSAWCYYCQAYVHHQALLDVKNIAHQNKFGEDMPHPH

Histone deacetylase 7 [4] = target: T4, Histone deacetylase 7 (Homo sapiens, UniProt Q8WUI4); test: Inhibition of HDAC7 in human HeLa nuclear extract using Boc-Lys(Ac)-AMC as substrate preincubated for 5 mins followed by substrate addition measured after 30 mins by fluorometric assay; format: cell-free
T4 sequence (Q8WUI4 whole entry): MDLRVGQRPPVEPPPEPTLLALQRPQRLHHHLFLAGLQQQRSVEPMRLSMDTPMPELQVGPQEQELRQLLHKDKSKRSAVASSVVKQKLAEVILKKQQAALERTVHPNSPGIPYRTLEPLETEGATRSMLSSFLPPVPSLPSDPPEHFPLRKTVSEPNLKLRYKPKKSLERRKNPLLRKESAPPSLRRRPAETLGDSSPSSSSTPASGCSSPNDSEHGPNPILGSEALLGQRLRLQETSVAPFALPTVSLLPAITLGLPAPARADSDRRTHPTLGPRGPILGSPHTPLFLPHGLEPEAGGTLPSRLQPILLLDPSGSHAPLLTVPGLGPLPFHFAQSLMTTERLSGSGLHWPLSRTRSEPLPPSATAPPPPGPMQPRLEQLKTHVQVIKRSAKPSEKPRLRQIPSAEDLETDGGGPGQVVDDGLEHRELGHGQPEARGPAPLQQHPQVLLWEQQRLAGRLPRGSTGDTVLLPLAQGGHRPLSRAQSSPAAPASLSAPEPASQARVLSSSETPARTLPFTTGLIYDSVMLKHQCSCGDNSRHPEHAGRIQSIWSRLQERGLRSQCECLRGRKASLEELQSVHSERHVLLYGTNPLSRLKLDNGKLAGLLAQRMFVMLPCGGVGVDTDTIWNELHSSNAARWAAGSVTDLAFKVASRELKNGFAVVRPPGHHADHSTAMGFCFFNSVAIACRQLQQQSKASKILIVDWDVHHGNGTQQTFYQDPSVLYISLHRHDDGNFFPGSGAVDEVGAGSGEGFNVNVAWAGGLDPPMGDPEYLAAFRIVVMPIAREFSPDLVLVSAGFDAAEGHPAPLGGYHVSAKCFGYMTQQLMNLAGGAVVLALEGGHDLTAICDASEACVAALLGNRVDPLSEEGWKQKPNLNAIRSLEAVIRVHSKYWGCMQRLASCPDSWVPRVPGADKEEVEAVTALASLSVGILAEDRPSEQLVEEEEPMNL

Histone deacetylase 5 [5] = target: T2, Histone deacetylase 5; test: Inhibition of HDAC5 (unknown origin)
Histone deacetylase 9 [6] = target: T5, Histone deacetylase 9 (Homo sapiens, UniProt Q9UKV0); test: Inhibition of HDAC9 (unknown origin)
Histone deacetylase 4 [7] = target: T1, Histone deacetylase 4; test: Inhibition of HDAC4 (unknown origin)
Histone deacetylase 9 [8] = target: T5, Histone deacetylase 9; test: Inhibition of HDAC9 in human HeLa nuclear extract using Boc-Lys(Ac)-AMC as substrate preincubated for 5 mins followed by substrate addition measured after 30 mins by fluorometric assay; format: cell-free
Histone deacetylase 7 [9] = target: T4, Histone deacetylase 7; test: Inhibition of HDAC7 (unknown origin)
[10] = target: T3, Protein deacetylase HDAC6; test: Inhibition of HDAC6 in human HeLa nuclear extract using Boc-Lys(Ac)-AMC as substrate preincubated for 5 mins followed by substrate addition measured after 30 mins by fluorometric assay; format: cell-free
Histone deacetylase 2 = Histone deacetylase 2 (Homo sapiens, UniProt Q92769); test: Inhibition of HDAC2 (unknown origin)
Histone deacetylase 8 = target: T6, Histone deacetylase 8 (Homo sapiens, UniProt Q9BY41); test: Inhibition of HDAC8 (unknown origin)
T6 sequence (Q9BY41 whole entry): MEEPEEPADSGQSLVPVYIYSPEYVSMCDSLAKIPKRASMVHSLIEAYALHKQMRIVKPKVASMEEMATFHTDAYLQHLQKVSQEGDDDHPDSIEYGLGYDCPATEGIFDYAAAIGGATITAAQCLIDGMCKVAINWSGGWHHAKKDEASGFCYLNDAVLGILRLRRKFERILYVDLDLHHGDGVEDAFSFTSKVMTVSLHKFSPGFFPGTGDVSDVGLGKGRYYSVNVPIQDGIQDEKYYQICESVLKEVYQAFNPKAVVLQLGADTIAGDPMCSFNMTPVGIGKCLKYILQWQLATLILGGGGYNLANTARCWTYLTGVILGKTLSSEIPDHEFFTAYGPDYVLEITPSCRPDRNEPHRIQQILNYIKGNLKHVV

Histone deacetylase 11 = target: T7, Histone deacetylase 11 (Homo sapiens, UniProt Q96DB2); test: Inhibition of HDAC11 (unknown origin)
T7 sequence (Q96DB2 whole entry): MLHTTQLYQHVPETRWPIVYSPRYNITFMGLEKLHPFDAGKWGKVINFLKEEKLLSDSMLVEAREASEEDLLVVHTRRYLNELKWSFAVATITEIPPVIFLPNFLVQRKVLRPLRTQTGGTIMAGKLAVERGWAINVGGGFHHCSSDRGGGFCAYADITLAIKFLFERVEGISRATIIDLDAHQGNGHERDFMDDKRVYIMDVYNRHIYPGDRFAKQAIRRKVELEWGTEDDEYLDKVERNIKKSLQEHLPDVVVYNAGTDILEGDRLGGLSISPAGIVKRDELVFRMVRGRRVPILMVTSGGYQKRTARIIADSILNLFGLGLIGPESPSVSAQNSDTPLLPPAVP

[11] = target: T8, Polyamine deacetylase HDAC10 (Homo sapiens, UniProt Q969S8); test: Inhibition of HDAC10 (unknown origin)
T8 sequence (Q969S8 whole entry): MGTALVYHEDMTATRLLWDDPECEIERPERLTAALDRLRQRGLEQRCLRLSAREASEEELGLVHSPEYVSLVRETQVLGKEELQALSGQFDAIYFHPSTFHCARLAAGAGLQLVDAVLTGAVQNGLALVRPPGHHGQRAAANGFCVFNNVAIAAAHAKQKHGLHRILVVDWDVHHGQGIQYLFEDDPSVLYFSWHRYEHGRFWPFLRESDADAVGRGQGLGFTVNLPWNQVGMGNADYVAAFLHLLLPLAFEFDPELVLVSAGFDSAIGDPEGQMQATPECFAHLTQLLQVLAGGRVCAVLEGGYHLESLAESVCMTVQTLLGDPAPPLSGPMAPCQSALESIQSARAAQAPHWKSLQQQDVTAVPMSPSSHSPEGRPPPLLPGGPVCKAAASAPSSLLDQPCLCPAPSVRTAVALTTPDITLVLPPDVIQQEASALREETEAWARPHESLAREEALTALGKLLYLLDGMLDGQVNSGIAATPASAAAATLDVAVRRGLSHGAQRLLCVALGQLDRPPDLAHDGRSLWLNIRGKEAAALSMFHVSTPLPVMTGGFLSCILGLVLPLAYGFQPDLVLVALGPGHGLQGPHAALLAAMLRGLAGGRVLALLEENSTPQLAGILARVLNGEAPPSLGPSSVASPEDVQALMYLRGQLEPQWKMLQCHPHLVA

Histone deacetylase 1 = Histone deacetylase 1 (Homo sapiens, UniProt Q13547); test: Inhibition of HDAC1 (unknown origin)
Histone deacetylase 3 = Histone deacetylase 3 (Homo sapiens, UniProt O15379); test: Inhibition of HDAC3 (unknown origin)
Histone deacetylase 3, sequence (O15379 whole entry): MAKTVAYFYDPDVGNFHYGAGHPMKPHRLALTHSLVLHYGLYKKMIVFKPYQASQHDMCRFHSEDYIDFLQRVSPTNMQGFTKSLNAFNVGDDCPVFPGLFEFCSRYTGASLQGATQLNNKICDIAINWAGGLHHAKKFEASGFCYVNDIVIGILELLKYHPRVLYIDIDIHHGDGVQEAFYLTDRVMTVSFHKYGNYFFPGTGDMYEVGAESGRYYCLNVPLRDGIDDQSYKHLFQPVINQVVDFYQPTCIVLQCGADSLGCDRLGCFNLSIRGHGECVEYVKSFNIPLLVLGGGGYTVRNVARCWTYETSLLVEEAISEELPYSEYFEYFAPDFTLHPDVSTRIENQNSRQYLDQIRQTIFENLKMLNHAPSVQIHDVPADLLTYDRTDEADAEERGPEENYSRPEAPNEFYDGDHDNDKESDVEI

T5 sequence (Q9UKV0 whole entry): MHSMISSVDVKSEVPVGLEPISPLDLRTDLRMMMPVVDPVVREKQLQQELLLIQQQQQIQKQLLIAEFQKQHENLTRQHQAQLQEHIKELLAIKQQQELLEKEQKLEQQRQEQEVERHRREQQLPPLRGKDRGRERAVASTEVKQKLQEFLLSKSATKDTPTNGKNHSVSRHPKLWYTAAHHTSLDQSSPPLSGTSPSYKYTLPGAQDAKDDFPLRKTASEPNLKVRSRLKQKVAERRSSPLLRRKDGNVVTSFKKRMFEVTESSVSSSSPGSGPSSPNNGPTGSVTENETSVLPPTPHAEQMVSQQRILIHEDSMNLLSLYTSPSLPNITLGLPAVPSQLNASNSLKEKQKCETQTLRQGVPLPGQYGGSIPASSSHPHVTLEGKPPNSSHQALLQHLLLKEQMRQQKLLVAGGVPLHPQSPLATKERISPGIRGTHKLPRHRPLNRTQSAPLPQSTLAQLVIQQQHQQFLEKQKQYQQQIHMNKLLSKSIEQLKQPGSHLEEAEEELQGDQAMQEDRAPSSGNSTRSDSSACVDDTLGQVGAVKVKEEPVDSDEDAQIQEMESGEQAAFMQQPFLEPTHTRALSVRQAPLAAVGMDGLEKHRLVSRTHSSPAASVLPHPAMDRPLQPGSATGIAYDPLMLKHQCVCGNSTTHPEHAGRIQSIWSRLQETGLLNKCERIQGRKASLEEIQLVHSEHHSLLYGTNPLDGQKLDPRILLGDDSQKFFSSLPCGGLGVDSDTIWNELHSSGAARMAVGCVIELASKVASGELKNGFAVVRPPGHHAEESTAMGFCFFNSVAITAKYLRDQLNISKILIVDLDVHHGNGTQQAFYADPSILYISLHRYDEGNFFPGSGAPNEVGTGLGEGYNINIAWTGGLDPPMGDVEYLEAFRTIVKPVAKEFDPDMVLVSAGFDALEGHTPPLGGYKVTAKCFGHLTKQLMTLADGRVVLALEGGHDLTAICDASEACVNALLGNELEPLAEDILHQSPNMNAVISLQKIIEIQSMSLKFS
T1 sequence (P56524 whole entry): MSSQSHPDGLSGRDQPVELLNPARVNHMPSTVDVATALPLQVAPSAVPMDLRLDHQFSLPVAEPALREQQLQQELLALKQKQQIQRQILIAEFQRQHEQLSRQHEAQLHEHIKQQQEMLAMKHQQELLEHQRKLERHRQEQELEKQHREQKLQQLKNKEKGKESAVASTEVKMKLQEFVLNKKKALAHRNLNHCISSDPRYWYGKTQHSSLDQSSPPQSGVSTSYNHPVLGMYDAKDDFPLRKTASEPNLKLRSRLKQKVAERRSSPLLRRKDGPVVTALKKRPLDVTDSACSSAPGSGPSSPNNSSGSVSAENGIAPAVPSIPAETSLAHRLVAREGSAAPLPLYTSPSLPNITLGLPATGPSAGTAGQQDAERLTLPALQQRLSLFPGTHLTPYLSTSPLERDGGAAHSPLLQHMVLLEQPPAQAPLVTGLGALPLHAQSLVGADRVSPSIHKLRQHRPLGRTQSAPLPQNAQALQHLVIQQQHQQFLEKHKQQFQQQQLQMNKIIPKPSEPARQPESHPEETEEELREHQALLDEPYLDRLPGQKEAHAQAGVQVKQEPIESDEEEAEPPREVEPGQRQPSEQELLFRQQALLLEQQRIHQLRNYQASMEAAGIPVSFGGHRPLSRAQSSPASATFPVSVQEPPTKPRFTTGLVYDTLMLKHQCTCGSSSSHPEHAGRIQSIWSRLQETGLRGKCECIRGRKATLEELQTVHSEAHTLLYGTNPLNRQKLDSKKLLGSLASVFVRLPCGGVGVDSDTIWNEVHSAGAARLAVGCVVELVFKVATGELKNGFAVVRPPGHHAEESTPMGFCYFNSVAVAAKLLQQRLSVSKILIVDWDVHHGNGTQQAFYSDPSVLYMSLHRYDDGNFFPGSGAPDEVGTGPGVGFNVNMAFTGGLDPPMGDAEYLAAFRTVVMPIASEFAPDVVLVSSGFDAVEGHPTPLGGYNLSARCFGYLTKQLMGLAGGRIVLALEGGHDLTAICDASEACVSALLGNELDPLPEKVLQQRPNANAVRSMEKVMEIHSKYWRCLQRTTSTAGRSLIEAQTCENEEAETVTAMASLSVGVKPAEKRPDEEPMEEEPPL
T2 sequence (Q9UQL6 whole entry): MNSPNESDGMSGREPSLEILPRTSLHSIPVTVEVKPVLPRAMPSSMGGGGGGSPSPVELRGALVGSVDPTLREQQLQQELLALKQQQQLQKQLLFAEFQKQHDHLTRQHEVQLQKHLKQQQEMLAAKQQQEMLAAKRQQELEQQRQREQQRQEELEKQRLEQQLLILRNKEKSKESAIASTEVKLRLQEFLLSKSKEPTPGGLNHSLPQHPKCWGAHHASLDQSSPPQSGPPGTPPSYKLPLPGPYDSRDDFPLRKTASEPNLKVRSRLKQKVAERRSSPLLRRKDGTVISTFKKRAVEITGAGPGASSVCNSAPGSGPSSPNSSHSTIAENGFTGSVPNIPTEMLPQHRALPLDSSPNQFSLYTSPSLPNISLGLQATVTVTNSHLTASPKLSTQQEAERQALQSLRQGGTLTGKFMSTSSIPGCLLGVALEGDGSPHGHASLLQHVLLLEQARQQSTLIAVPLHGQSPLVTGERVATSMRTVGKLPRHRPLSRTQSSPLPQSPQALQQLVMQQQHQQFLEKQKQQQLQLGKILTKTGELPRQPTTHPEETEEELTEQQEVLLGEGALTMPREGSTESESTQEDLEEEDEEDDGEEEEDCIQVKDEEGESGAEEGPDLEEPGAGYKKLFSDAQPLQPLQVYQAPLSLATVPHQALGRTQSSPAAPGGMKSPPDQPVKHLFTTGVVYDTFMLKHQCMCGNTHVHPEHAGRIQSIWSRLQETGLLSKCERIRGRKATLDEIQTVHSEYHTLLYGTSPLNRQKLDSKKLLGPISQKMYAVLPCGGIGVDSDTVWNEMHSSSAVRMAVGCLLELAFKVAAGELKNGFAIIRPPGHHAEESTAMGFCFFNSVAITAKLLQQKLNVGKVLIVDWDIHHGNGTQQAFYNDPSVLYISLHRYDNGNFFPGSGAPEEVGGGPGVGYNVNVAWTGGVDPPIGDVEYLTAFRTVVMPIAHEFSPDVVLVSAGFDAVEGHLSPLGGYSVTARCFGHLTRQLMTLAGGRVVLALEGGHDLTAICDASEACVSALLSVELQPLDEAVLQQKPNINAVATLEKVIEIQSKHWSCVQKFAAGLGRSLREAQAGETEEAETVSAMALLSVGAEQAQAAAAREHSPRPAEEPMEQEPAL
Histone deacetylase 2, sequence (Q92769 whole entry): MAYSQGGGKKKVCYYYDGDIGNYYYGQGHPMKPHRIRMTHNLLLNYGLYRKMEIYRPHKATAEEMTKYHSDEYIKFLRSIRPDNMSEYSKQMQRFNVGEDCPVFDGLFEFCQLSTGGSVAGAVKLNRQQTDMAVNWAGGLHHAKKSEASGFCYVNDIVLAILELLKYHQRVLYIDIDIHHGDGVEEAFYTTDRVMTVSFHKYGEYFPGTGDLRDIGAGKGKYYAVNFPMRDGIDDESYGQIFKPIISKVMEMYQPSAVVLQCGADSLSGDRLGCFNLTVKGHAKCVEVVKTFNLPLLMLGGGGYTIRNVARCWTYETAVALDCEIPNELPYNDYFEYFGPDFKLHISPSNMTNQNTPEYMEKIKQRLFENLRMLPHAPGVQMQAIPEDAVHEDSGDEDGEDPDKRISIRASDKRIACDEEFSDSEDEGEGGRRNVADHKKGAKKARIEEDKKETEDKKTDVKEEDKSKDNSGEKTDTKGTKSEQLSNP
Histone deacetylase 1, sequence (Q13547 whole entry): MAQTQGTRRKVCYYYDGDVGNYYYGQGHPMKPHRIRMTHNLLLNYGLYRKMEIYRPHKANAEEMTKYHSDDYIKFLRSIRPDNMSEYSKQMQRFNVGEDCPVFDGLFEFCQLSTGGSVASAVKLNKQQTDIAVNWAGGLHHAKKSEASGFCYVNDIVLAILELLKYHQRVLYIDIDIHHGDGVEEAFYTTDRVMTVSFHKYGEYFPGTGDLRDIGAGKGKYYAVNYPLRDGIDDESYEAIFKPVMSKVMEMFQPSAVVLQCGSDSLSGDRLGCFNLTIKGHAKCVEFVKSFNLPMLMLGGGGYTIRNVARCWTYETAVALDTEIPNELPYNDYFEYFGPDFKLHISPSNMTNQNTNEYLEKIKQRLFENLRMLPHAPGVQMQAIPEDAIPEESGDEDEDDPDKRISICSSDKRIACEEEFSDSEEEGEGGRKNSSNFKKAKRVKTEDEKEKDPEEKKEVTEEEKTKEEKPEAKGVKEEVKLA

| Compound | Ki (Histone deacetylase 2) | Ki (Histone deacetylase 8) | Ki [3] | Ki (Histone deacetylase 5 [5]) | Ki (Histone deacetylase 9 [6]) | Ki (Histone deacetylase 11) | Ki [11] | Ki (Histone deacetylase 1) | Ki (Histone deacetylase 4 [7]) | Ki (Histone deacetylase 3) | also measured |
| --- | --- | --- | --- | --- | --- | --- | --- | --- | --- | --- | --- |
| CN(Cc1cnc2nc(N)nc(N)c2n1)c1ccc(C(=O)NC(CCP(=O)(O)O)P(=O)(O)O)cc1 (stereo unspecified) | – | – | – | – | – | – | – | – | – | – | IC50 (Histone deacetylase 4 [1]): > 40 µM; IC50 (Histone deacetylase 5 [2]): > 40 µM; IC50 [3]: > 40 µM; IC50 (Histone deacetylase 7 [4]): > 40 µM; IC50 (Histone deacetylase 5 [5]): 1.27 µM; IC50 (Histone deacetylase 9 [6]): 7.84 µM; IC50 (Histone deacetylase 4 [7]): 4.16 µM; IC50 (Histone deacetylase 9 [8]): > 40 µM; IC50 (Histone deacetylase 7 [9]): 16.2 µM; IC50 [10]: > 40 µM |
| CN1CCC(CNC(=O)c2cccc(C(=O)NO)c2)(c2nc(-c3ccccc3)cs2)CC1 | > 19 µM | 1.33 µM | 0.189 µM | 24.3 µM | 5.98 µM | > 19 µM | > 10 µM | 11.9 µM | 23.8 µM | > 43 µM | Ki (Histone deacetylase 7 [9]): 3.94 µM |
| CN1CCC(CNC(=O)c2cccc(-c3noc(C(F)(F)F)n3)c2)(c2nc(-c3ccccc3)cs2)CC1 | > 19 µM | 7.66 µM | 2.81 µM | 0.182 µM | 0.008 µM | > 19 µM | > 10 µM | > 23 µM | 0.075 µM | > 43 µM | – |
